From patent US11504383B2, “Crystalline forms of a Ryanodine receptor modulator and uses thereof” (ARMGO Pharma, Inc., priority 2021, dated 2022)

Test: Stability of Form 2 in an airtight glass bottle for up to 24 months under various storage conditions
Format: physicochemical
Parameters: key to Appearance: A1: White or almost white powder; key to Identification: I1: Spectrum of test sample identical to spectrum of reference sample; I3: Spectrum of test sample identical to spectrum of reference sample stored at −18° C
Description: Stability of 4-[(7-methoxy-2,3-dihydro-1,4-benzothiazepin-4(5H)yl)methyl]benzoic acid hemifumarate Form 2 was evaluated for up to 24 months under various conditions.

## COc1ccc2c(c1)CN(Cc1ccc(C(=O)O)cc1)CCS2.O=C(O)/C=C/C(=O)O [Form 2, 4-[(7-methoxy-2,3-dihydro-1,4-benzothiazepin-4(5H)yl)methyl]benzoic acid, hemifumarate]
25° C./60% RH, 1 Y
  Appearance: A1
  Assay of Drug substance (LC): 99.8%
  Identification: I3
  Related substances content (LC) Sum of impurities: ≤0.05%
  Water content: <0.1%
25° C./60% RH, 2 Y
  Appearance: A1
  Assay by potentiometry: 99.6%
  Assay of Drug substance (LC): 99.5%
  Identification: I3
  Related substances content (LC) Sum of impurities: ≤0.05%
  Water content: <0.1%
25° C./60% RH, 3 M
  Appearance: A1
  Assay by potentiometry: 100.0%
  Assay of Drug substance (LC): 99.6%
  Identification: I3
  Related substances content (LC) Sum of impurities: ≤0.05%
  Water content: 0.1%
25° C./60% RH, 6 M
  Appearance: A1
  Assay by potentiometry: 102.1%
  Assay of Drug substance (LC): 99.7%
  Identification: I3
  Related substances content (LC) Sum of impurities: ≤0.05%
  Water content: 0.1%
25° C./60% RH, 6 W
  Appearance: A1
  Assay by potentiometry: 99.7%
  Assay of Drug substance (LC): 102.5%
  Identification: I3
  Related substances content (LC) Sum of impurities: ≤0.05%
  Water content: <0.1%
25° C./60% RH, 9 M
  Appearance: A1
  Assay by potentiometry: 99.1%
  Assay of Drug substance (LC): 100.6%
  Identification: I3
  Related substances content (LC) Sum of impurities: ≤0.05%
  Water content: <0.1%
25° C./60% RH, 18 M
  Appearance: A1
  Assay by potentiometry: 99.8%
  Assay of Drug substance (LC): 100.9%
  Identification: I3
  Related substances content (LC) Sum of impurities: ≤0.05%
  Water content: 0.1%
25° C./60% RH, T0
  Appearance: A1
  Assay by potentiometry: 99.9%
  Assay of Drug substance (LC): 99.7%
  Identification: I1
  Related substances content (LC) Sum of impurities: ≤0.05%
  Water content: 0.1%
30° C./65% RH, 1 Y
  Appearance: A1
  Assay of Drug substance (LC): 99.5%
  Identification: I3
  Related substances content (LC) Sum of impurities: ≤0.05%
  Water content: <0.1%
30° C./65% RH, 3 M
  Appearance: A1
  Assay by potentiometry: 99.8%
  Assay of Drug substance (LC): 99.7%
  Identification: I3
  Related substances content (LC) Sum of impurities: ≤0.05%
  Water content: 0.1%
30° C./65% RH, 6 M
  Appearance: A1
  Assay by potentiometry: 100.4%
  Assay of Drug substance (LC): 100.2%
  Identification: I3
  Related substances content (LC) Sum of impurities: ≤0.05%
  Water content: 0.1%
30° C./65% RH, 6 W
  Appearance: A1
  Assay by potentiometry: 99.8%
  Assay of Drug substance (LC): 102.4%
  Identification: I3
  Related substances content (LC) Sum of impurities: ≤0.05%
  Water content: <0.1%
30° C./65% RH, 9 M
  Appearance: A1
  Assay by potentiometry: 99.6%
  Assay of Drug substance (LC): 99.7%
  Identification: I3
  Related substances content (LC) Sum of impurities: ≤0.05%
  Water content: <0.1%
30° C./65% RH, T0
  Appearance: A1
  Assay by potentiometry: 99.9%
  Assay of Drug substance (LC): 99.7%
  Identification: I1
  Related substances content (LC) Sum of impurities: ≤0.05%
  Water content: 0.1%
40° C./75% RH, 3 M
  Appearance: A1
  Assay by potentiometry: 99.8%
  Assay of Drug substance (LC): 99.5%
  Identification: I3
  Related substances content (LC) Sum of impurities: ≤0.05%
  Water content: 0.1%
40° C./75% RH, 6 M
  Appearance: A1
  Assay by potentiometry: 100.5%
  Assay of Drug substance (LC): 99.2%
  Identification: I3
  Related substances content (LC) Sum of impurities: ≤0.05%
  Water content: 0.1%
40° C./75% RH, 6 W
  Appearance: A1
  Assay by potentiometry: 99.8%
  Assay of Drug substance (LC): 102.2%
  Identification: I3
  Related substances content (LC) Sum of impurities: ≤0.05%
  Water content: 0.1%
40° C./75% RH, T0
  Appearance: A1
  Assay by potentiometry: 99.9%
  Assay of Drug substance (LC): 99.7%
  Identification: I1
  Related substances content (LC) Sum of impurities: ≤0.05%
  Water content: 0.1%
−18° C., 1 Y
  Appearance: A1
  Water content: <0.1%
−18° C., 2 Y
  Appearance: A1
  Water content: <0.1%
−18° C., 3 M
  Appearance: A1
  Water content: 0.1%
−18° C., 6 M
  Appearance: A1
  Water content: 0.1%
−18° C., 6 W
  Appearance: A1
  Assay by potentiometry: 99.9%
  Identification: I3
  Water content: 0.1%
−18° C., 9 M
  Appearance: A1
  Assay by potentiometry: 99.7%
  Water content: <0.1%
−18° C., 18 M
  Appearance: A1
  Water content: 0.1%
−18° C., T0
  Appearance: A1
  Assay by potentiometry: 99.9%
  Assay of Drug substance (LC): 99.7%
  Identification: I1
  Related substances content (LC) Sum of impurities: ≤0.05%
  Water content: 0.1%
